Results on one molecule are retold here after patent US20150368248A1, “2-SUBSTITUTED-6-BIARYLMETHYLAMINO-9-CYCLOPENTYL-9H-PURINE DERIVATIVES, USE THEREOF AS MEDICAMENTS, AND PHARMACEUTICAL COMPOSITIONS” (UNIVERZITA PALACKEHO V OLOMOUCI, priority 2013, published 2015).

In test [1] the test system is caspases-3/7 in Hep3B carcinoma cells. Briefly: Caspase-3/7 activity in lysates of treated cells (Example 33). Type of test: cell-based, human. Conditions: 24 h treatment, concentration of 3xIC50. The protocol: Measurements of proapoptotic properties of BP14 were based on quantification of enzymatic activities of caspases-3/7. For caspase assays, treated cells were harvested by centrifugations and homogenized in an extraction buffer (10 mM KCl, 5 mM Hepes, 1 mM EDTA, 1 mM EGTA, 0.2% CHAPS, inhibitors of proteases, pH 7.4) on ice for 20 min. The homogenates were clarified by centrifugation at 10,000 g for 20 min at 4° C., then proteins were quantified by the Bradford method and diluted to the same concentration. Lysates were then incubated for 5 h with 100 μM Ac-DEVD-AMC as substrate (Sigma-Aldrich) in an assay buffer (25 mM PIPES, 2 mM EGTA, 2 mM MgCl2, 5 mM DTT, pH 7.3). The fluorescence of the product was measured using a Fluoroskan Ascent microplate reader (Labsystems, Helsinki, Finland) at 346 nm/442 nm (ex/em).

In test [2] the test system is 3sp (formerly described as HCC-1.1). Briefly: MTT cell viability assay (Example 40). It counts as cell-based. The note with it: Homo sapiens, 72 hours. The protocol: (§1) The human hepatoma cell lines and HepG2, PLC/PRF/5 (PLC), Hep3B and 3sp (formerly described as HCC-1.1) were cultivated in RPMI 1640 and 10% fetal calf serum (FCS) as described (31, 32). All cells were kept at 37° C. and 5% CO2 and were routinely screened for the absence of mycoplasma.
(§2) Cell viability was determined using the 3-(4,5 dimethylthiazol-2-yl)-2,5-diphenyltetrazolium bromide (MTT) assay. Briefly, cells were seeded in triplicates at a density of 6×10^3 cells per well. After 24 hours, cells were incubated with drug-containing medium for 72 hours. Cells were incubated with MTT solution (5 mg/ml; Sigma, St. Louis, USA) and medium was replaced with DMSO after five hours. The absorbance was measured at 620 nm by employing a microplate reader (Asys HiTech, Salzburg, Austria). MTT assays were repeated 3 times for each drug application and untreated cells were used as reference. IC50 values were obtained by log-linear interpolation of data points and are depicted by dose-response curves using the software GraphPad Prism® 5.01.
(Tetrazolium assays rely on reduction of a dye to a coloured formazan, in cell work by metabolically active cells.)

The next test deals with Hep3B. The test can be described thus: MTT cell viability assay (Example 40). Conditions: Homo sapiens, 72 hours. It counts as cell-based. The protocol: as §1, §2
The subject of a further test is HepG2. Briefly: MTT cell viability assay (Example 40). Conditions: Homo sapiens, 72 hours. Type of test: cell-based. The protocol:
as §1, §2

Another test concerns PLC/PRF/5 (PLC). The test can be described thus: MTT cell viability assay (Example 40). The note with it: Homo sapiens, 72 hours. Type of test: cell-based. The procedure:
as §1, §2

The subject of a further test is CDK1/CDK2. Briefly: Kinase inhibition assays using cell-free extracts. Type of test: biochemical, human. Conditions: 0.03 μM. The protocol: Whole cell extracts were prepared by lysing Hep3B cells with a buffer containing 20 mM Tris pH 8.0, 100 mM NaCl, 1 mM EDTA and 0.5% NP-40. 100 μg of extract was used for immunoprecipitation at 4° C. for 4 hours either with 1 μg of the anti-CDK2 antibody M2 (Santa Cruz Biotechnology, Santa Cruz, USA) or with 1 μg of the anti-cyclin B1 antibody GNS1 (Santa Cruz Biotechnology, Santa Cruz, USA). The precipitated proteins were washed three times with lysis buffer followed by one wash with the kinase buffer (50 mM HEPES pH 7.5, 10 mM MgCl2 and 1 mM DTT) and subsequently resuspended in 20 μl kinase buffer containing 5 μCi [γ-^32P]ATP
(PerkinElmer, Santa Clara, USA), 1 μg histone H1 (New England Biolabs, Ipswich, USA) and the respective concentration of inhibitor. After incubation for 60 minutes at 30° C., the supernatant was boiled in sample buffer containing 60 mM Tris/HCl pH6.8, 10% Glycerol, 2% SDS, 5% β-mercaptoethanol, 0.02% Bromophenol Blue. The proteins were separated by SDS-PAGE and blotted onto nitrocellulose membrane. Thereafter, the membrane was stained with Ponceau S to check equal loading and analyzed by autoradiography.

In test [3] the test system is HepG2, PLC and Hep3B cells. Briefly: Analysis of proliferation (cell counter). The note with it: 0.2 μM. It counts as cell-based, human. The procedure: 6×10^4 cells were seeded on 12-well plates and incubated with inhibitors at different concentrations for 3 days. Cell numbers were determined at various time points after trypsinization using a cell counter (CASY, Scharfe Systems, Reutlingen, Germany). Three independent experiments were performed in triplicates.

A further test concerns HepG2 or PLC cells. The test can be described thus: BrdU incorporation in cultured cells. Type of test: cell-based, human. The note with it: 1 μM, 24 hours. The procedure: BrdU incorporation into cell nuclei directly indicates cell proliferation. Cultured cells were grown in medium containing 10 μM 5-bromo-2′-deoxy-uridine (BrdU) for 1 hour. After removing labeling medium, cells were fixed and DNA denatured with a fixing/denaturing solution containing 2 M HCl for 30 minutes at 37° C. To analyze BrdU incorporation in vivo, 200 μl Ringer solution containing 1 mg BrdU was intraperitoneally injected into xenografted mice 2 hours prior to analysis. Mice were sacrificed and tumor tissue was fixed in 4% formaldehyde and processed for immunohistochemistry. The incorporation of BrdU into cellular DNA was detected using a monoclonal anti-BrdU antibody (Sigma, St. Louis, USA) followed by incubation with a peroxidase-conjugated secondary antibodies (Calbiochem, LaJolla, USA) at dilutions of 1:10,000.
In general terms: Uptake of a labelled nucleoside into DNA is a usual measure of proliferation.

In a further test the test system is DEN-induced hepatoma. The test can be described thus: Diethylnitrosamine-induced liver cancer and drug intervention. It counts as in vivo, C57BL/6J mice. Conditions: 3 cycles of 10 days, i.p., breaks of 7 days. The procedure: To initiate tumor development in the liver, 14-day-old C57BL/6J mice were intraperitoneally injected with a single dose of diethylnitrosamine (DEN, 25 mg/kg). After 8 month, pharmacological intervention was administrated in DEN-induced mice by 3 cycles of treatment with compounds for 10 days and a release from compounds for 7 days between the cycles. Either 5 mg/kg BA-12 or 1 mg/kg BP-14 was intraperitoneally injected in 100 μl of 0.01% DMSO. Control mice obtained 100 μl solvent only. Thereafter, mice were sacrificed and livers were fixed in 4% formaldehyde. Two researchers independently scored the diameters of neoplasia that could be monitored at the liver surface. Cancerous nodules with a diameter of up to 1 cm, covering more than 97% of all visible hepatomas, were included into the analysis. […] All animal experiments were performed according to the Austrian guidelines for animal care and protection.

One may read the IC50 as the concentration that gives 50% inhibition. Lower therefore signals greater potency in that assay. As to `NC1CCC(Nc2nc(NCc3ccc(-c4ccco4)nc3)c3ncn(C4CCCC4)c3n2)CC1` (stereo not drawn) [BP14, N^2-(4-amino-cyclohexyl)-9-cyclopentyl-N^6-(6-furan-2-yl-pyridin-3-ylmethyl)-9H-purine-2,6-diamine], the “activity of caspase-3/7 compared with the untreated control” value in test [1] was “twenty-fold increase”. The IC50 in [2] amounted to 480 nM; in the test on Hep3B it was 80 nM; in the test with HepG2, 120 nM; in the test on PLC/PRF/5 (PLC), 20 nM. Moreover, the “CDK1/CDK2 activity in cell-free extracts” value in the test with CDK1/CDK2 is “significantly reduced CDK1/CDK2 activity”. Also, the proliferation kinetics result in test [3] is recorded as “cytostatic effect”. The “decrease of BrdU incorporation as compared to control” value in the test with HepG2 or PLC cells was “more than 2 fold”. Also, the “decrease of tumor nodules as compared to untreated control mice” value in the test with DEN-induced hepatoma amounted to 1.3 fold.
